Legend:
[1] = biological target: T1, receptor cluster comprising CD14 (Homo sapiens, UniProt P08571); experiment: FRET with a series of antibody pairs: receptor cluster comprising CD14 on monocytes; type: cell-based; settings: stimulation of the cells as control
T1 construct: endogenous in cells; host or cells: human monocytes in whole blood
T1 sequence (P08571 20-345 limits assumed): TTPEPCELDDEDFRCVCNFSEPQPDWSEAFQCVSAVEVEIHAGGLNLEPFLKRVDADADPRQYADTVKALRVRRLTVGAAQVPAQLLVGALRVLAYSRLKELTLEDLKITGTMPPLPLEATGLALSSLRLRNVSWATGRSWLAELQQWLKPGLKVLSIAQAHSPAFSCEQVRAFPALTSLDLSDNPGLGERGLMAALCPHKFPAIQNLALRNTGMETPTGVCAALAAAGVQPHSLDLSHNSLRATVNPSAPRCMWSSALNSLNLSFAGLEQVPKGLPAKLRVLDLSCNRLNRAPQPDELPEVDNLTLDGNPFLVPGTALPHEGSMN
Experimental: (§1) Aliquots […] of whole blood were incubated with the following stimulatory compounds at 37° C. for 15 minutes: LPS of Salmonella minnesota (0.1-10 nM, Mw 10 kDa), ceramide (primarily stearic acid and nervonic acid) and sulfogalactosyl ceramide (SG-cer, […]), both of which tested LPS free in the LAL assay (Cer, 1 nM-5.5 mM), lysophosphatidyl choline (lyso-PC, 10 mM), phorbol-12-myristate-13-acetate (PMA, 1 mM), N-formyl-L-methionyl-L-leucyl-L-phenyl alamine (fMLP, 1 mM), PE, PC, PI and PS liposomes (10 mm) which had been prepared as described above. All reagents were obtained from Sigma. In addition, the cells were stimulated with HPS70 (7 nM), dHSP70 (7 nM) and SG-cer+dHSP70 (40 nM+7 nM). After incubation, the cells were washed with cold PBS containing 0.1% of NaN3. The synthetic LPS antagonist lipid IVa (“compound-406”, 1-400 ng/ml) and lipid A derived from E. coli (1-100 ng/ml) were made available by courtesy of Dr. S. Kusumoto. The cells were pre-incubated with the LPS antagonist at 37° C. for 15 minutes and then stimulated with LPS at the same temperature (without washing).
Whole blood cells which had been stimulated or washed ex vivo […] were incubated on ice for 15 minutes with saturation concentrations of monoclonal fluorochrom-conjugated or biotinylated antibodies. The monoclonal antibodies CD11a (clone 25.3.1), CD16a (clone 3G8). […]

CD11b and CD14 = biological target: T2, CD11b and CD14 (Homo sapiens, UniProt P08571); experiment: FRET flow cytometry: co-assembly of CD11b and CD14 on monocytes; type: cell-based; settings: for co-assembly of CD11b and CD14 (energy transfer between monoclonal antibodies): human monocytes in whole blood, stimulation with the substance alone, 37° C. 15 minutes
T2 construct: endogenous in cells; host or cells: human monocytes in heparinised whole blood (healthy donors and patients)
T2 sequence (P08571 20-345 limits assumed): T1 sequence (P08571 20-345 limits assumed)
Experimental: as §1
Whole blood cells which had been stimulated or washed ex vivo […] were incubated on ice for 15 minutes with saturation concentrations of monoclonal fluorochrom-conjugated or biotinylated antibodies. The monoclonal antibodies CD11a (clone 25.3.1), CD16a (clone 3G8). CD18 (clone 7E4), CD14 (clone RMO52), CD33 (clone My9-RD1). CD81 (clone Js64) were obtained as R-phyco-erythrine (R-PE) conjugates and CD25 (clone B1.49.9) in biotinylated form from Coulter/Immunotech (Krefeld, Germany). CD11b (clone d12), CD11c (clone S-HCL-3), CD36 (clone CB38), CD47 (clone B6H12), CD81 (clone JS-81) and (Cd55 (clone IA10) in biotinylated form and Streptavidin-R-PE were purchased from Becton/Dickinson/Pharningen (Heidelberg, Germany) CD18 (clone IB4) in biontinylated form and CD40 (clone EA-5) as R-PE conjugate were obtained from Alexis (Grünberg, Germany) and CD14 (clones ×8 and Uchml) and CD3 (clone Cris-7) in biotinylated form and Streptavidin-Cy5 (Sa-Cy5) from Dianova (Hamburg, Germany), CD32 (clone C1KM5) and CD64 (clone 10.1) were obtained as R-PE conjugates from Caltag (Burlingame, U.S.A.) and CD91 (clone 8G1) in biotinylated form from Proen (Heidelberg, Germany). A monoclonal anti-TLRA antibody (clone HTA125) was kindly provided by Dr. Kensuke. Since no energy transfer between the antibodies directed against the CD14/CD11a and CD14/CD11c pairs was detectable either on resting or on stimulated cells, these antibody combinations were not characterised further.
Lysis of erythrocytes and washing were carried out as described (Rothe et al., Thromb. Vasc. Biol. 16 (1996), 1437-1447). After the last washing step, the samples were divided and part of each sample incubated with a saturating amount of SA-Cy5 on ice for 15 minutes and washed before measuring.
For energy transfer experiments, […] aliquots of whole blood were treated with cholesterol/methyl cyclodextrine (C/C) (100 mg/ml/4.6 mg/ml) or 2-hydroxypropyl-β-cyclodextrine (0.15 mg/ml) at 37° C. for 30 minutes and then stimulated further with LPS (4 nM) or ceramide (40 nM) as described above. The energy transfer between CD14 and CD11b was measured.
A “FACSCalibur” flow cytometer (Becton Dickinson) equipped with an air-cooled 15 mW argon laser (excitation wavelength 488 nm), a diode laser (excitation wavelength […]) and standard filters [channel 1 (FITC): 530/30 nm band pass filter; channel 2 (R-PE being used as donor dye); 585/47 nm band pass filter; channel 3 (PerCP): pass having a length of >670 nm; and channel 4 (Cy5being used as recipient dye): 661/16 nm bad pass filter] was used. The Cellquest software (Becton Dickinson) was used for the measurements. […] Measurement was conducted without compensation. 50,000 leukocytes were required in the “list” modus, forward scattering (FSC) being used as a trigger signal. […]

human CD14 = biological target: T3, human CD14 (Homo sapiens, UniProt P08571); experiment: Binding of [14C]N-palmitoyl-D-sphingosine to CHO cells transfected with human CD14
T3 construct: expressed in transfected cells; host or cells: CHO cells (control: pPol-DHFR vector)
T3 sequence (P08571 20-345): T1 sequence (P08571 20-345 limits assumed)
Experimental: d. CHO cells transfected with human CD14 (-unlabelled ceramide)(●)+unlabelled ceramide (∘)) or with a pPol-DHFR vector (-unlabelled ceramide (▪)+unlabelled ceramide (□)) were incubated with the specified concentrations of [^14C]N-palmitoyl-D-sphingosine and the ^14C bound to the cells determined. Each data point represents the mean value ± SD of three measurements.
Cells transfected with human CD14 or the pPol-DHFR vector were grown as described recently (Stelter et al., Eur. J. Biochem. 238 (1996), 457-464). The cells were trypsinated, washed twice with PBS and then taken up in PBS containing 10% of human serum. CHO cells (4×10^5) were pre-incubated on ice in the presence of a 50 fold excess of unlabelled N-palmitoyl-D-sphingosine (Sigma) for 15 minutes in a final volume of […]. After that [^14C]N-palmitoyl-D-sphingosine (American Radiolabeled Chemicals Inc., St. Louis, Mo., U.S.A.) was added and the cells incubated for another 15 minutes. In order to remove non-bound activity, the cells were washed twice and then transferred to a fresh Eppendorf vessel. After repeated washing, the pellet was dissolved in […] of 1% SDS, 10 mM EDTA and then added to 3 ml of scintillation liquid. The amount of cell-bound radioactivity was determined by measuring the scintillation of the liquid.

Structure (SMILES)	energy transfer between any of the antibody pairs [1]	co-assembly of CD11b and CD14 (energy transfer between monoclonal antibodies) (CD11b and CD14)	inhibition of binding by 50-fold excess of unlabelled ligand (human CD14; CD14-transfected CHO fibroblasts)	binding to CD14-transfected CHO fibroblasts compared to vector-transfected cells (human CD14; cell-bound 14C, PBS with 10% human serum, on ice 15 minutes)	effect on LPS-induced co-association between CD14 and CD11b (CD11b and CD14; antagonist given in vitro 15 minutes before stimulation, LPS 4 nM + c-406 400 ng/ml)	effect on ceramide-induced co-association between CD14 and CD11b (CD11b and CD14; antagonist given in vitro 15 minutes before stimulation, ceramide 10 nM + c-406 100 ng/ml)
CCCCCCCCCCCCCC(=O)O[C@@H]1[C@@H](C)[C@@]2(O)[C@@H](C=C(CO)C[C@]3(O)C(=O)C(C)=C[C@@H]23)[C@@H]2C(C)(C)[C@]12OC(C)=O [PMA, phorbol-12-myristate-13-acetate]	did not result in any significant energy transfer	neither fMLP or PMA showed any effect				
CCCCCCCCCCCCC/C=C/[C@@H](O)[C@H](CO)N[14C](=O)CCCCCCCCCCCCCCC [[^14C]-N-palnitoyl-D-sphingosine, [^14C]N-palmitoyl-D-sphingosine]			could be inhibited by adding a 50-fold excess of unlabelled ligand	much higher when compared to vector-transfected cells		
CCCCCCCCCCC[C@@H](O)CC(=O)N[C@H]1[C@H](OC[C@H]2O[C@H](OP(=O)(O)O)[C@H](NC(=O)C[C@H](O)CCCCCCCCCCC)[C@@H](OC(=O)C[C@H](O)CCCCCCCCCCC)[C@@H]2O)O[C@H](CO)[C@@H](OP(=O)(O)O)[C@@H]1OC(=O)C[C@H](O)CCCCCCCCCCC [compound-406]		did not induce co-assembly of the receptors CD14 and CD11b			reduced the LPS- or ceramide-induced co-association between CD14 and CD11b significantly	reduced the LPS- or ceramide-induced co-association between CD14 and CD11b significantly

From patent US20030165919A1, “Method for the analysis of exogenic and endogenic cell activiation based on measuring the aggregation of receptors” (priority 2000, published 2003)
